Source: patent US20110230566A1, “PERFLUOROCARBON EYE CREAM FORMULATIONS” (priority 2010, published 2011)

Experiments:
[1] = Oxygen and CO2 carrying capacity of the PFC; type: physicochemical; conditions: at body temperature
Description: Perfluoro(tert-butylcyclohexane) can carry about 43 mL of oxygen per 100 mL of PFC, and 196 mL of CO2 per 100 mL of PFC at body temperature.

[2] = Physical properties of perfluoro(tert-butylcyclohexane); type: physicochemical
Text: Physical properties of perfluoro(tert-butylcyclohexane) are as follows:
Oxycyte® is a perfluorocarbon emulsion oxygen carrier. The active ingredient in Oxycyte®, perfluoro(tert-butylcyclohexane) (C10F20, MW˜500), also known as F-tert-butylcyclohexane or “FtBu”, is a saturated alicyclic PFC. […] Oxycyte® can be used in the PFC compositions, methods and uses described herein.
Being that the PFCs are slightly lipophilic at body temperature and would help in the transport of oxygen into and removal of carbon dioxide from, e.g., periocular skin.

CO2 carried [1]: ~196 mL of CO2 per 100 mL of PFC
oxygen carried [1]: about 43 mL of oxygen per 100 mL of PFC
Density [2]: 1.97 g/mL
Kinematic Viscosity [2]: 5.378 cP
water solubility [2]: non-water soluble
Vapor Pressure ([2]; @ 25° C.): 3.8 mmHg
Vapor Pressure ([2]; @ 37° C.): 4.4 mmHg
lipophilicity ([2]; at body temperature): only slightly lipophilic
lipophilicity ([2]; at room temperature): not lipophilic
lipophilicity ([2]; temperature not stated): non-lipophilic
SMILES: FC(F)(F)C(C(F)(F)F)(C(F)(F)F)C1(F)C(F)(F)C(F)(F)C(F)(F)C(F)(F)C1(F)F [perfluoro(tert-butylcyclohexane)]
